Test: Toxicity in iv dosed mouse
Assay type: organism-based
Conditions: in vivo

With N=C(N)NCCCC1NCCc2c1[nH]c1ccccc21 (stereo unspecified) [TRYPARGINE] the LD50 was 16.9 mg/kg.
